These are literature values, as cited in patent US9744133B2, “Enhanced stability of novel liquid compositions” (Pfizer Inc., priority 2013, dated 2017).

The conditions of this data set: 25° C.

Turning to `COc1ccccc1OCC(O)CO` (stereo not shown) [Guaifenesin], the Solubility in water result is “approximately 4 % by weight”.
